In ChEMBL document CHEMBL4350952, “Evolution of PI3Kγ and δ Inhibitors for Inflammatory and Autoimmune Diseases” (J Med Chem, 2019):

Tests used:
Homo sapiens [1] = species on record: Homo sapiens; test: Selectivity ratio of IC50 for PI3Kalpha in human SUDHL6 cells to IC50 for PI3Kdelta in human SUDHL6 cells; assay type: cell-based
SU-DHL-6 [2] = test: Cytotoxicity against in human SUDHL6 cells; assay type: functional, cell-based
Homo sapiens [3] = species on record: Homo sapiens; test: Selectivity ratio of IC50 for PI3Kbeta in human SUDHL6 cells to IC50 for PI3Kdelta in human SUDHL6 cells; assay type: cell-based
[4] = molecular target: T1, Phosphatidylinositol 4,5-bisphosphate 3-kinase catalytic subunit gamma isoform (Homo sapiens, UniProt P48736); test: Inhibition of PI3Kgamma in human SUDHL6 cells; assay type: cell-based
[5] = Cytotoxicity against basophil derived from B-cell malignant patient by cell-titer aqueous one solution cell proliferation assay; assay type: functional; details: Homo sapiens
[6] = molecular target: T2, Phosphatidylinositol 4,5-bisphosphate 3-kinase catalytic subunit delta isoform (Homo sapiens, UniProt O00329)
T2 sequence (O00329 whole entry): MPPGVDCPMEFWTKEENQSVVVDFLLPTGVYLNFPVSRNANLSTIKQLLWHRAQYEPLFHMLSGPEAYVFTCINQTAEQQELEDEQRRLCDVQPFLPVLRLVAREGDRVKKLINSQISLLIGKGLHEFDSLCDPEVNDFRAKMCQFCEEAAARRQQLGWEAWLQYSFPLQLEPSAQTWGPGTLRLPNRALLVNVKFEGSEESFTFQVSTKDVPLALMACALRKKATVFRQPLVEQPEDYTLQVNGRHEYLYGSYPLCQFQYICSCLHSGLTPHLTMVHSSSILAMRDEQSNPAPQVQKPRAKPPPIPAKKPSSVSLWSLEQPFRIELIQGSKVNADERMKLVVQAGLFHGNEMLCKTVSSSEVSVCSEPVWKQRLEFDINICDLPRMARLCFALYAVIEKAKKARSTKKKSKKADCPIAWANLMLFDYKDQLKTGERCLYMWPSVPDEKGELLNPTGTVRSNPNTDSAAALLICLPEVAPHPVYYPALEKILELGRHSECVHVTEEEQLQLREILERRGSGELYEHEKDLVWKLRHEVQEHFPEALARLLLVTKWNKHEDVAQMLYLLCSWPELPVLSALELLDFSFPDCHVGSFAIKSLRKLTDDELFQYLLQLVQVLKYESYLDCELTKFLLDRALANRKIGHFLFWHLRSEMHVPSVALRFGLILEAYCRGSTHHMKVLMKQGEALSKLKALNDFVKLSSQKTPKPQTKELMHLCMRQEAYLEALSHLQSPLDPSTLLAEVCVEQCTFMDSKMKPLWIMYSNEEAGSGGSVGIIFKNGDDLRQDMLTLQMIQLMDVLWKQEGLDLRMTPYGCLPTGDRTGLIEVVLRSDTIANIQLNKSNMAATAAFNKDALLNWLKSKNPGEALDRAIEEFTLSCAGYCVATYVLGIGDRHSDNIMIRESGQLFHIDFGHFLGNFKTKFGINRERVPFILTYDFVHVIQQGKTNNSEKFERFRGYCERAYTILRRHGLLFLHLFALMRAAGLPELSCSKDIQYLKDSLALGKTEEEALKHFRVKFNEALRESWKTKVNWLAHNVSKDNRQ
Description: Inhibition of PI3Kdelta (unknown origin) preincubated for 30 mins followed by insulin stimulation for 5 mins by Western blot analysis

[7] = molecular target: T1, Phosphatidylinositol 4,5-bisphosphate 3-kinase catalytic subunit gamma isoform; test: Inhibition of PI3Kgamma (unknown origin)
Jurkat = test: Cytotoxicity against human Jurkat cells; assay type: functional, cell-based
Homo sapiens [8] = species on record: Homo sapiens; test: Selectivity ratio of IC50 for N-terminal His6-tagged recombiant human full length p120gamma IC50 for N-terminal His6-tagged recombinant full length human p110delta/untagged recombinant full length human p85alpha
[9] = molecular target: T2, Phosphatidylinositol 4,5-bisphosphate 3-kinase catalytic subunit delta isoform; test: Inhibition of PI3Kdelta (unknown origin)
[10] = molecular target: T3, PI3-kinase p110-delta/p85-alpha (Homo sapiens, UniProt O00329); test: Inhibition of N-terminal His6-tagged recombinant full length human p110delta/untagged recombinant full length human p85alpha expressed in baculovirus infected Sf21 insect cells using PIP2 as substrate after 60 mins by HTRF assay
JeKo-1 = test: Cytotoxicity against human JeKo1 cells; assay type: functional, cell-based
[11] = Cytotoxicity against human SUDHL cells; assay type: functional, cell-based
[12] = molecular target: T3, PI3-kinase p110-delta/p85-alpha; test: Inhibition of N-terminal His6-tagged recombinant full length human p110delta/untagged recombinant full length human p85alpha expressed in baculovirus infected Sf21 insect cells after 20 mins by alphascreen assay
[13] = molecular target: T1, Phosphatidylinositol 4,5-bisphosphate 3-kinase catalytic subunit gamma isoform; test: Inhibition of recombinant N-terminal His-tagged full length human PI3Kgamma expressed in baculovirus expression system after 80 mins by fluorescence polarization assay
[14] = molecular target: T3, PI3-kinase p110-delta/p85-alpha; test: Inhibition of N-terminal His6-tagged recombinant full length human p110delta/untagged recombinant full length human p85alpha expressed in baculovirus infected Sf21 insect cells after 80 mins by fluorescence polarization assay
Homo sapiens [15] = species on record: Homo sapiens; test: Selectivity ratio of IC50 for His-tagged recombiant human full length p110 alpha/p85 alpha IC50 for N-terminal His6-tagged recombinant full length human p110delta/untagged recombinant full length human p85alpha
Homo sapiens [16] = species on record: Homo sapiens; test: Selectivity ratio of IC50 for N-terminal His-tagged recombinant human full length p110 beta/untagged recombinant full length human p85alpha IC50 forN-terminal His6-tagged recombinant full length human p110delta/untagged recombinant full length human p85alpha
[17] = molecular target: Serine/threonine-protein kinase SIK1 (Homo sapiens) (UniProt P57059); test: Inhibition of SIK (unknown origin) at 1 uM relative to control
[18] = molecular target: DNA-dependent protein kinase catalytic subunit (Homo sapiens, UniProt P78527); test: Inhibition of DNAPK (unknown origin)
[19] = molecular target: Phosphatidylinositol 3-kinase catalytic subunit type 3 (Homo sapiens, UniProt Q8NEB9); test: Inhibition of Vps34 (unknown origin)
SU-DHL-6 [20] = test: Cytotoxicity against human SU-DHL6 cells; assay type: functional, cell-based
[21] = molecular target: T2, Phosphatidylinositol 4,5-bisphosphate 3-kinase catalytic subunit delta isoform; test: Inhibition of PI3Kdelta in human SU-DHL6 cells; assay type: cell-based
[22] = molecular target: T3, PI3-kinase p110-delta/p85-alpha; test: Inhibition of N-terminal His6-tagged recombinant full length human p110delta/untagged recombinant full length human p85alpha expressed in baculovirus infected Sf21 insect cells after 60 mins by ADP-Glo assay
Pfeiffer = test: Cytotoxicity against human Pfeiffer cells; assay type: functional, cell-based

T3 sequence (P27986 whole entry, one chain of several): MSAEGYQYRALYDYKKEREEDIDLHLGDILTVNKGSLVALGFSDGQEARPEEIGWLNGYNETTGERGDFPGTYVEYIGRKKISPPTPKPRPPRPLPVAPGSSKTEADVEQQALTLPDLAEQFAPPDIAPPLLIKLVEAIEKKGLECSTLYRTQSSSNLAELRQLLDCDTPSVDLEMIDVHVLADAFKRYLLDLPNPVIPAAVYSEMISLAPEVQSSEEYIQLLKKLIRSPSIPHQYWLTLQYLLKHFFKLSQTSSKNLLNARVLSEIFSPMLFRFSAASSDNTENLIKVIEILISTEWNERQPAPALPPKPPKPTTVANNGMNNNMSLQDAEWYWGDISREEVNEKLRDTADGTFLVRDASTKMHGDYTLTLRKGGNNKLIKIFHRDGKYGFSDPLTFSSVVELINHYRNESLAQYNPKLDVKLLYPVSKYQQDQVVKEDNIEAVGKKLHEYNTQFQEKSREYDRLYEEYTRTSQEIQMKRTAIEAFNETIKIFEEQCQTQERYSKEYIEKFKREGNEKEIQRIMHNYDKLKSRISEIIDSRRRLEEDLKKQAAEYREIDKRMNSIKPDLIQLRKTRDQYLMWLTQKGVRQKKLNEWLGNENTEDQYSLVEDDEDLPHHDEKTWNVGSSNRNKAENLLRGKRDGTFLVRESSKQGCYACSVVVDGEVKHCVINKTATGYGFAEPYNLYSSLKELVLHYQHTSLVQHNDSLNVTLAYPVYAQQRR
T1 sequence (P48736 whole entry, canonical isoform): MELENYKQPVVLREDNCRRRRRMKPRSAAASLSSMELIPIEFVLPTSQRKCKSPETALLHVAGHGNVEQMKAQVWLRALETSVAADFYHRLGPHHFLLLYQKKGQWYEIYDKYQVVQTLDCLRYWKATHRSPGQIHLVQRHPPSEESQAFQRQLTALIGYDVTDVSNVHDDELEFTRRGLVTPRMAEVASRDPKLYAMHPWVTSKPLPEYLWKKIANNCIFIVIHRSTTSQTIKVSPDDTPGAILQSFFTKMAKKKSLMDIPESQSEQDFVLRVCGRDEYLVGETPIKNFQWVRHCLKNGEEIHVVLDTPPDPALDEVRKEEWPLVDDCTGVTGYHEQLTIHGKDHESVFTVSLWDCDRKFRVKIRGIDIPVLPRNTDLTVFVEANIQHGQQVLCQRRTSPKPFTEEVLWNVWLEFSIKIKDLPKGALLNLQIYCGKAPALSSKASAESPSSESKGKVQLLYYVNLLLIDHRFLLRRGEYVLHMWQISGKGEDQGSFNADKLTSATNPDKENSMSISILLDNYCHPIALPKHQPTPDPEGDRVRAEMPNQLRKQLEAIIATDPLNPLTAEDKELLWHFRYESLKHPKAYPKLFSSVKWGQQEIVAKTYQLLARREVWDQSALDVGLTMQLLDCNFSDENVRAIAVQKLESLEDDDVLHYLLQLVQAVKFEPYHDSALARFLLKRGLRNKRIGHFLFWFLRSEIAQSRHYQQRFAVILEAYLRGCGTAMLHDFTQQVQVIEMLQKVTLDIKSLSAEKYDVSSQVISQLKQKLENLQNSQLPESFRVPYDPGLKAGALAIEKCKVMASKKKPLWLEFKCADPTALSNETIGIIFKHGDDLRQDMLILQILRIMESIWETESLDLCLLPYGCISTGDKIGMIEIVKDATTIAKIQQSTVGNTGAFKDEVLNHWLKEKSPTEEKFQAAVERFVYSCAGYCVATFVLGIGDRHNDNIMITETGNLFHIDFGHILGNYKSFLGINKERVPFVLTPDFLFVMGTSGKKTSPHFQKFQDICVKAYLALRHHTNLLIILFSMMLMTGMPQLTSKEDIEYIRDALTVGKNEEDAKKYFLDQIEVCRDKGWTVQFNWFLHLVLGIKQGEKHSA
Sequence of Serine/threonine-protein kinase SIK1 (Homo sapiens) (P57059 whole entry): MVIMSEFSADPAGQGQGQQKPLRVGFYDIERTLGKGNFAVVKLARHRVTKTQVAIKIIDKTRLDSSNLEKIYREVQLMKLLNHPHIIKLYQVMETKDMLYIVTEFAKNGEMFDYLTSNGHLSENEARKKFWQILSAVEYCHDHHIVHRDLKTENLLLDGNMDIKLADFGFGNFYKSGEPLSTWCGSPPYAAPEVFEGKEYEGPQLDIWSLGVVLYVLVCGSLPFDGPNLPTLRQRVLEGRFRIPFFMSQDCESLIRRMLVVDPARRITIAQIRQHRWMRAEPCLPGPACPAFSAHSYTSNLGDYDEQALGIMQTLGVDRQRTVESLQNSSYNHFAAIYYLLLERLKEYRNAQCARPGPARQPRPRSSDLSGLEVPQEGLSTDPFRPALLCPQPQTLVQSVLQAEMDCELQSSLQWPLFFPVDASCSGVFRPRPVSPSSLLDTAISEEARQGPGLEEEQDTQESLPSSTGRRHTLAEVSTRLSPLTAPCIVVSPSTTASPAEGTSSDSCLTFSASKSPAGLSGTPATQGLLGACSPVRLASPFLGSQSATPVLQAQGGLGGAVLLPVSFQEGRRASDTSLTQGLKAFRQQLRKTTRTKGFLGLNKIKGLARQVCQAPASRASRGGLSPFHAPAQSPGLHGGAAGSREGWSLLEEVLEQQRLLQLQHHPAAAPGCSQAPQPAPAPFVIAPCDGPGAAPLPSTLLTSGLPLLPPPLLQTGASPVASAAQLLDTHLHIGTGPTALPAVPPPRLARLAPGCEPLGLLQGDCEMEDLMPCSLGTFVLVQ
Sequence of Phosphatidylinositol 3-kinase catalytic subunit type 3 (Q8NEB9 whole entry): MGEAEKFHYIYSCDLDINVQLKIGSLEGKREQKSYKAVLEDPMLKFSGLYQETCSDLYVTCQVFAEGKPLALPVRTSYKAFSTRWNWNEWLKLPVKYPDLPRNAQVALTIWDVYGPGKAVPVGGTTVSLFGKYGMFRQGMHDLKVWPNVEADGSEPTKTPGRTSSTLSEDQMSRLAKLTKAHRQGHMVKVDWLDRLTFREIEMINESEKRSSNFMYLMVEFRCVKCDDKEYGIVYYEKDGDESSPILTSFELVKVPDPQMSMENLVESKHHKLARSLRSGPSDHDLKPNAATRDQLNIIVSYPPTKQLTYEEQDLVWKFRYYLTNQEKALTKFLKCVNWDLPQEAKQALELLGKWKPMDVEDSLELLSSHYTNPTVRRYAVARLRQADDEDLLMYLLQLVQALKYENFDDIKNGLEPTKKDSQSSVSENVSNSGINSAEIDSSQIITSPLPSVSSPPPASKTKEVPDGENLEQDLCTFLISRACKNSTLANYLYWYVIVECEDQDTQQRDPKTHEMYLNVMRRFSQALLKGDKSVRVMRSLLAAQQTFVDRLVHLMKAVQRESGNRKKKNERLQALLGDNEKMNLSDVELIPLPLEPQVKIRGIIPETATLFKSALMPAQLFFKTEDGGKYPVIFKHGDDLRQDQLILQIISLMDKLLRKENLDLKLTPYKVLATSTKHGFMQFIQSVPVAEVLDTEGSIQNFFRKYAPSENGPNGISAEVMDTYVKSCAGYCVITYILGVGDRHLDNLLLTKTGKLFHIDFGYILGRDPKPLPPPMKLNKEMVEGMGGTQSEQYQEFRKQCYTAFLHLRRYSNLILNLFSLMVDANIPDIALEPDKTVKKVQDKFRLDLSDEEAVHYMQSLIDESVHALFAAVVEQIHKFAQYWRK

## C[C@H](Nc1ncnc2[nH]cnc12)C1=Nc2cccc(Cl)c2S(=O)(=O)N1c1ccccc1
Homo sapiens [1]
  Ratio IC50: 790
SU-DHL-6 [2]
  IC50: 6 nM
Homo sapiens [3]
  Ratio IC50: 170
[4]
  IC50: 34 nM

## Cc1csc2nc([C@H](C)Nc3ncnc4[nH]cnc34)c(-c3cccc(F)c3)c(=O)n12 [DEZAPELISIB]
[5]
  IC50: 35 nM

## Cc1cccc2nc([C@H](C)Nc3ncnc4[nH]cc(-c5cccc(NS(C)(=O)=O)c5)c34)n(-c3ccccc3)c(=O)c12
[6]
  IC50: 0.04 nM

## CC(c1oc(=O)c2ccccc2c1C1=CCN(C)CC1)n1nc(-c2cc(O)cc(F)c2)c2c(N)ncnc21 (configuration not stated)
[7]
  IC50: > 1000 nM

## Cc1ccc2c(c1)C(=O)N(C)c1cnc(Nc3cccc(S(=O)(=O)N4CCC(O)CC4)c3)nc1N2C
Jurkat
  IC50: 1400 nM
Homo sapiens [8]
  Ratio IC50: 3.5
[9]
  IC50: 2 nM

## CC[C@H](Nc1ncnc2c1nc(-c1cnn(CC)c1C)n2C)C(=O)N1CCC(F)(F)CC1
[10]
  IC50: 2.8 nM

## Cc1ncc(-c2nc3c(-c4ccc5c(c4)C4(CCCN4S(C)(=O)=O)C(=O)N5)ncnc3n2C)cn1 (configuration not stated)
[10]
  IC50: 0.7 nM

## Cn1nc(-c2cnc(N)c(-c3ccc(C(N)=O)c(F)c3)n2)nc1C1(c2ccccc2)CC1
JeKo-1
  IC50: 120 nM

## C[C@H](Nc1ncnc(N)c1C#N)c1cc2ncc(Cl)n2cc1-c1ccccc1
[7]
  IC50: 87 nM
[9]
  IC50: 0.2 nM

## CC(=O)N1CC(N2CCOc3c(C(C)n4nc(C)c5c(N)ncnc54)cc(Cl)c(C)c3C2)C1 (configuration not stated)
[11]
  IC50: < 500 nM
[12]
  IC50: < 100 nM

## C[C@H]1CN(c2nc(N)nc3c2S(=O)(=O)CC3)[C@@H]1c1nn2ccc(Cl)c2c(=O)n1-c1ccccc1
[13]
  IC50: 3 nM
[14]
  IC50: 4 nM
Homo sapiens [15]
  Ratio IC50: 250
Homo sapiens [16]
  Ratio IC50: 250

## C[C@H](NC(=O)c1c(N)nn2cccnc12)c1cc2cccc(C#Cc3cnn(C)c3)c2c(=O)n1-c1ccccc1 [EGANELISIB]
[17]
  inhibition: 88%
[18]
  IC50: 4800 nM
[19]
  IC50: 40000 nM

## CC[C@H](Nc1ncnc(N)c1-c1nnc(C)o1)c1nc2cccc(Cl)c2c(=O)n1-c1ccccc1
[6]
  IC50: 2 nM

## Cc1csc2cc(C(C)Nc3ncnc4[nH]cnc34)c(-c3ccccc3)c(=O)n12 (configuration not stated)
SU-DHL-6 [20]
  IC50: 36 nM

## COc1ccc(-c2nc3c(O[C@H]4CCN(C(=O)C5CCOCC5)C4)ncnc3n2C)cn1
[10]
  IC50: < 1 nM

## C[C@H](Nc1nc(N)nc(N)c1C#N)c1cn2ncc(Cl)c2nc1-c1cccc(F)c1
SU-DHL-6 [20]
  IC50: < 20 nM
[21]
  IC50: < 20 nM

## Cc1nn(C)c(-c2ccccc2)c1Cn1nc(-c2cc(O)cc(F)c2)c2c(N)ncnc21
[22]
  IC50: < 1000 nM

## COc1c(C(C)Nc2ncnc(N)c2C#N)cc(Cl)c(C)c1-c1cccnc1 (configuration not stated)
Pfeiffer
  IC50: < 20 nM
[12]
  IC50: < 20 nM
